Assay results taken from patent US8470970B2, “Mammalian sweet and amino acid heterodimeric taste receptors comprising T1R3 and T1R1” (The Regents of the University of California, priority 2001, dated 2013).
Blank lines part the entries; values can stand above or below the molecule they belong to.

Key:
mouse T1R1+3 = biological target: T1, mouse T1R1+3 (Mus musculus, UniProt Q925D8+Q99PG6); test: Calcium imaging of HEK-293 cells co-expressing promiscuous G proteins and mouse T1R1+3; format: cell-based; details: for shift of T1R1+3 dose response in the presence of IMP: 2.5 mM IMP; for activation of T1R1+3: amino acids 50 mM
T1 construct: expressed in transfected cells; host or cells: HEK-293 (PEAKrapid) cells co-expressing promiscuous G proteins
T1 sequence (Q99PG6 20-842 L120P/N244D/D281A/N309Y/P311T/S314P/H418Y): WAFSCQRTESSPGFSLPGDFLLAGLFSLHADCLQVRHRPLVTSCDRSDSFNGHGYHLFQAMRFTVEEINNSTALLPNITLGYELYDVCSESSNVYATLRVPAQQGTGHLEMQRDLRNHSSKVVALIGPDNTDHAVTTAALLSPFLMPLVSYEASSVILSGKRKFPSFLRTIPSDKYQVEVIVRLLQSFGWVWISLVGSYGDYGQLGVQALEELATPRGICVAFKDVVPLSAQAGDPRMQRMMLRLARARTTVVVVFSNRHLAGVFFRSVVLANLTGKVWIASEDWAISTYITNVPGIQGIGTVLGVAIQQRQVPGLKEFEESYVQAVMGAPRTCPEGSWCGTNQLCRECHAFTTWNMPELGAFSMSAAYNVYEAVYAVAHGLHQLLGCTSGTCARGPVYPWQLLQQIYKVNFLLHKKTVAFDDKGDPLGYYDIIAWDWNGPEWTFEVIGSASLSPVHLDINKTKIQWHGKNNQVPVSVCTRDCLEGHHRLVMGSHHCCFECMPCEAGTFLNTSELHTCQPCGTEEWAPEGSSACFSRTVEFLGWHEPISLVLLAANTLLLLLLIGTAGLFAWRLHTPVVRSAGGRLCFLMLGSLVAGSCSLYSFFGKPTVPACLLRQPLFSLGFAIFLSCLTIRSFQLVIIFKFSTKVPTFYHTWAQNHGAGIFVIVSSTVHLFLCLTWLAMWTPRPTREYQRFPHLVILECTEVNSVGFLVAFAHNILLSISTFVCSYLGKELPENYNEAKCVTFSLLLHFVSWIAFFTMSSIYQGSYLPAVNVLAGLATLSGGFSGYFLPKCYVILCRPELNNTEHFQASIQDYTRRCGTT
T1 sequence (Q925D8 21-858): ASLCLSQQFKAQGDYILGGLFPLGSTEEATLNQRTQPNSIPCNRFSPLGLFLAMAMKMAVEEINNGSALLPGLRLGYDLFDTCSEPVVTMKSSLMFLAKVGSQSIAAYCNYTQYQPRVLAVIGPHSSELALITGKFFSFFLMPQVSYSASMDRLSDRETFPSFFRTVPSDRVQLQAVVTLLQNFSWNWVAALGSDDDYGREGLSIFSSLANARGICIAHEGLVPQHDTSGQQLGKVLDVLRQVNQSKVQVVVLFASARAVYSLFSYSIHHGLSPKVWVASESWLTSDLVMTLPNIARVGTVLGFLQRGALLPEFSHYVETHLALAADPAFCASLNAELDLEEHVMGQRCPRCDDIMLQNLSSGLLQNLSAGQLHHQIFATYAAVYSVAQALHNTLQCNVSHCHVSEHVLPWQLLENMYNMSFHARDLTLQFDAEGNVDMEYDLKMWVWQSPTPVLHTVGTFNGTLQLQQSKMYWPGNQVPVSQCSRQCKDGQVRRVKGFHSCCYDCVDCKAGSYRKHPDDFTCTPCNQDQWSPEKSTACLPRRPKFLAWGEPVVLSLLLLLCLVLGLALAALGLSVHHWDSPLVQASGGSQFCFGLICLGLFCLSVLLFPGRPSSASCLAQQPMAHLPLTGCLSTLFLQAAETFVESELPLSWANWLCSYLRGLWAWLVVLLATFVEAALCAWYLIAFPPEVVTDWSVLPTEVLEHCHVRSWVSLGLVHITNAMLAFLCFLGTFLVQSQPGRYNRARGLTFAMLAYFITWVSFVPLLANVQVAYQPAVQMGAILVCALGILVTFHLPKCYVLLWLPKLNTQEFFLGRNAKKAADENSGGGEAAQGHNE
Procedure: (a): HEK-293 cells co-expressing promiscuous G proteins and heteromeric mouse T1R2+3 or T1R1+3 receptors were stimulated with L- and D-amino acids. […] (b)(c): Quantification of amino-acid responses for T1R2+3(b) and T1R1+3(c). […] Each column represents the mean±s.e.m. of at least ten independent determinations. […] All calcium measurements and quantifications were performed as described in the Methods and Nelson et al., Cell 106:381-390 (2001).
Mouse T1R1 and T1R3 were transfected alone or in combination and tested for stimulation by L-amino acids.
(§1) Cells were grown, maintained and transfected exactly as described earlier (Nelson et al., Cell, 106:381-390 (2001)). […] FURA-2 acetomethyl ester was used to measure intracellular calcium concentration ([Ca^2+]i), and assay conditions were identical to those previously described (Nelson et al., Cell, 106:381-390 (2001)). Responses were measured for 60 s and the fluorescence ratio at wavelengths of 340 and 380 nm (F340/F380) was used to measure [Ca^2+]i. For data analysis, response refers to the number of cells responding in a field of about 300 transfected cells. Cells were counted as responders if F340/F380 increased above 0.27 after addition of tastant. […] Dose-response functions were fitted using the logistical equation. Studies involving taster and non-taster alleles of T1R3 used constructs of complementary DNA coding for T1R3 from C57BL/6 and 129/Sv mice, respectively (Nelson et al., Cell, 106:381-390 (2001); Kitagawa et al., Biochem. Biophys. Res. Cummun., 283:236-242 (2001); Montmayeur et al., Nature Neurosci., 4:492-498 (2001); Max et al., Nature Genet., 28:58-63 (2001); Sainz et al., J. Neurochem., 77:896-903 (2001); Bachmanov et al., Chem. Senses, 26:925-933 (2001)).

[1] = biological target: T2, receptors containing human T1R1 (UniProt Q7RTX1+Q925D8)
T2 sequence (Q7RTX1 21-841): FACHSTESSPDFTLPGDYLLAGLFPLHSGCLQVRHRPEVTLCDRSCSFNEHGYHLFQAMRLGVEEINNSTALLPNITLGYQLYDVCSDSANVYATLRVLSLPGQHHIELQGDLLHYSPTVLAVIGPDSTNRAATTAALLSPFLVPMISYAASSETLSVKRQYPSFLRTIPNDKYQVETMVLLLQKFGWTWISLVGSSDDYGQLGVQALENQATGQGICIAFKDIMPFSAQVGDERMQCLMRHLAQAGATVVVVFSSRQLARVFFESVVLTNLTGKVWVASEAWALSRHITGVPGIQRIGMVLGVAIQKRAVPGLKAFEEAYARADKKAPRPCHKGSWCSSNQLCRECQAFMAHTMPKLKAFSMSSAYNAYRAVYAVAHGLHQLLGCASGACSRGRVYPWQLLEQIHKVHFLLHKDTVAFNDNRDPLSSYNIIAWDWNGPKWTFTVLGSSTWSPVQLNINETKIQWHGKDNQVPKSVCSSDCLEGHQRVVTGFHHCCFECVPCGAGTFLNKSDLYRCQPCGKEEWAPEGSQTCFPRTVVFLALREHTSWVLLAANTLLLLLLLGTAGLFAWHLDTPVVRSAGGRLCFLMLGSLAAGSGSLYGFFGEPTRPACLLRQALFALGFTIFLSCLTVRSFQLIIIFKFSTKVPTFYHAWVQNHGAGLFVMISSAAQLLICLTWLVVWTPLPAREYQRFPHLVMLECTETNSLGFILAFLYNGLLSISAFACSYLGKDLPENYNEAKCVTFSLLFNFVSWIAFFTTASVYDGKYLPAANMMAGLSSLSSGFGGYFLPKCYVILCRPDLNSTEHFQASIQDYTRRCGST
T2 sequence (Q925D8 21-858): T1 sequence (Q925D8 21-858)
Procedure: as §1

[2] = Behavioral thresholds for detection of sweet tastants in vivo

activation of T1R1+3 (mouse T1R1+3): activating
SMILES: C[C@H](N)C(=O)O [Ala, alanine]
shift of T1R1+3 dose response in the presence of IMP (mouse T1R1+3): at least one order of magnitude to the left

SMILES: C[C@@H](N)C(=O)O [D-Ala]
activation of T1R1+3 by D-amino acid in the presence of IMP (mouse T1R1+3; amino acid 50 mM, IMP 2.5 mM): exception

SMILES: N[C@@H](CCC(=O)O)C(=O)O [Glu, glutamate]
shift of T1R1+3 dose response in the presence of IMP (mouse T1R1+3): at least one order of magnitude to the left
sensitivity of cells expressing human T1R1 relative to other amino acids [1]: more than an order of magnitude more sensitive

activation of T1R1+3 (mouse T1R1+3): activates
activation of T1R1+3 (mouse T1R1+3; listed as glycine): activating
SMILES: NCC(=O)O [Gly, glycine]

SMILES: NC(CCP(=O)(O)O)C(=O)O [L-AP4]
potentiation of T1R1+3 response to the tastant by purine nucleotides (mouse T1R1+3): greatly potentiated

SMILES: N[C@@H](CCC(=O)O)C(=O)[O-].[Na+] [MSG, monosodium L-glutamate]
potentiation of T1R1+3 response to the tastant by purine nucleotides (mouse T1R1+3): greatly potentiated
activation of receptors containing human T1R1 ([1]; low concentration, FIG. 11c): robustly activates

activation of T1R1+3 (mouse T1R1+3): activating
SMILES: N[C@@H](CO)C(=O)O [Ser, serine]
shift of T1R1+3 dose response in the presence of IMP (mouse T1R1+3): at least one order of magnitude to the left

activation of T1R1+3 (mouse T1R1+3): no responses
SMILES: N[C@@H](Cc1c[nH]c2ccccc12)C(=O)O [Trp]

SMILES: CC1=CC(=O)[N-]S(=O)(=O)O1.[K+] [acesulfame-K]
in vivo threshold [2]: ~0.5 mM

activation of T1R1+3 (mouse T1R1+3): activating
SMILES: NC(=O)CC[C@H](N)C(=O)O [glutamine]

SMILES: O=C1NS(=O)(=O)c2ccccc21 [saccharin]
in vivo threshold [2]: ~0.5 mM

SMILES: OC[C@H]1O[C@@](CO)(O[C@H]2O[C@H](CO)[C@@H](O)[C@H](O)[C@H]2O)[C@@H](O)[C@@H]1O [sucrose]
in vivo threshold [2]: ~20 mM

activation of T1R1+3 (mouse T1R1+3): activating
SMILES: C[C@@H](O)[C@H](N)C(=O)O [threonine]
